Measured values from PMC11881559 (Antimicrobial Agents and Chemotherapy, 2025).

Tests used:
CYP3A = conditions: in vitro CYP reaction phenotyping, preclinical; cited from earlier work
[1] = dogs; preclinical animal studies; cited from earlier work
[2] = Exposure-response analysis of adverse events (logistic regression); set-up: species or system human
Description: For safety analysis, we also employed an exposure-response analysis method that included four binary outcomes: any adverse drug reaction (ADR), hypertriglyceridemia, hyperuricemia, and elevated creatinine levels. The exposure levels were derived by simulating individual parameter estimates from a population PK model ([23]), which generated dense sampling drug concentration-time curves. The noncompartmental analysis was subsequently performed using the PKNCA package in R software ver. 4.3 to calculate the area under the concentration-time curve over 24 h (AUC0-24) using the trapezoidal method and the maximum blood drug concentration within 24 h (Cmax).
logit(P(Yi=1))=β0+β1⋅log(Xi)
In this context, Xi represents the exposure (AUC0-24 and Cmax) of the ith subject, β0 denotes the intercept, and β1 indicates the coefficient for exposure. P(Yi = 1) represents the probability of AE occurrence, with logit referring to the logistic transformation.

[3] = Preclinical toxicology, NOAEL in rats; format: in vivo; conditions: from rat NOAEL, at 60 kg body weight
wild-type strain = conditions: in vitro, corrected by the plasma protein binding rate; cited from earlier work
[4] = 12-lead ECG QTcF assessment and C-QT model; format: in vivo, human
Procedure: To evaluate the cardiotoxicity of the drug, 12-lead ECG was conducted at several time points: 0 h, 1 h, 2 h, 4 h, 24 h, 48 h, 72 h, and 96 h after dosing in the SAD, food-effect, and DDI studies. In the MAD study, 12-lead ECG data were collected on day 1 (0 h, 1 h, 2 h, 4 h, and 8 h after dosing) and on day 5 (0 h, 1 h, 2 h, 4 h, 24 h, 48 h, 72 h, and 96 h after dosing), as well as before dosing and 2 h after dosing on days 2–4. Three consecutive ECGs were performed at each of these time points. The QT interval was corrected using the Fridericia formula [QTcF = QT / (RR^0.33), where RR = 60/heart rate]. Descriptive statistics were applied to the number of participants with abnormal changes in QTcF after dosing compared to baseline, including: (i) absolute value of QTcF >450 ms; (ii) absolute value of QTcF >500 ms; (iii) 30 ms < ΔQTcF ≤ 60 ms; (iv) ΔQTcF >60 ms (ΔQTcF = QTcF after dosing − baseline).

O=C(NC1CCCC1)C(=O)[C@H](C[C@@H]1CCNC1=O)NC(=O)[C@@H]1[C@H]2CCC[C@H]2CN1C(=O)[C@@H](NC(=O)C(F)(F)F)C1CCCCC1 [RAY1216, leritrelvir]
primary metabolizing enzyme (CYP3A): CYP3A is the primary metabolizing enzyme | no-observed-adverse-effect level (NOAEL) [1]: 600 mg/kg/day | exposure-response relationship of ADRs, hypertriglyceridemia, hyperuricemia, elevated creatinine with exposure (AUC0-24, Cmax) [2]: no significant dose-response relationship | human equivalent dose [3]: approximately 10,800 mg/day | antiviral 90% effective concentration (EC90) (wild-type strain): 0.165 mg/L | participants with absolute value of QTcF exceeding 450 ms ([4]; 700 mg combined with ritonavir BID group): one | mean ΔΔQTcF ([4]; 700 mg combined with ritonavir BID, at average Cmax 9280 ng/mL, C-QT model, 90% CI: −1.6526–7.0164): 2.6819 ms | correlation between drug concentration and the QT interval ([4]; C-QT model analysis): no significant correlation | participants exceeding a ΔQTcF of 60 ms ([4]; all cohorts): no participants | upper limit of the 90% CI for the average ΔΔQTcF ([4]; at the average Cmax concentration in each cohort, C-QT model predicted): less than 10 ms
